Source: publication PMC3638264 (Journal of Medicinal Chemistry, 2013)
Numbering of substitutions follows the chain as printed. Blank lines part the entries; values can stand above or below the compound they belong to.

What was measured:
LNCaP-AKR1C3 cells = assay: inhibition of testosterone formation in LNCaP-AKR1C3 cells; type: cell-based; settings: 30 μM inhibitor, 0.1 μM Δ4-AD, 48 h
AKR1C2 = molecular target: T1, AKR1C2 (Homo sapiens, UniProt P52895); assay: AKR1C2 inhibition, NADP+ dependent oxidation of S-tetralol; settings: for IC50 Ratio 1C2/1C3: selectivity for AKR1C3 over AKR1C2
T1 sequence (P52895 1-323): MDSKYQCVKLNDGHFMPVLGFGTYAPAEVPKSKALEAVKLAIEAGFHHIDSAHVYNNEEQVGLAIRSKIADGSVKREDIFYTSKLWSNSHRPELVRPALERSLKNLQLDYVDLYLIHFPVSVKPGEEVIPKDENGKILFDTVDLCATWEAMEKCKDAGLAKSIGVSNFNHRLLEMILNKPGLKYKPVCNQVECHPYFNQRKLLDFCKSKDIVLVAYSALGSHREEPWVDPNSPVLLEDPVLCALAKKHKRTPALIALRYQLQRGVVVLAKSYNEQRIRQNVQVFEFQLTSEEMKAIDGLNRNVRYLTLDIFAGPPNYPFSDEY

AKR1C3 = molecular target: T2, AKR1C3 (Homo sapiens, UniProt P42330); assay: AKR1C3 inhibition, NADP+ dependent oxidation of S-tetralol; settings: for loss of inhibitory potency for AKR1C3: relative to indomethacin (1); for loss of AKR1C3 potency: relative to 44
T2 sequence (P42330 1-323): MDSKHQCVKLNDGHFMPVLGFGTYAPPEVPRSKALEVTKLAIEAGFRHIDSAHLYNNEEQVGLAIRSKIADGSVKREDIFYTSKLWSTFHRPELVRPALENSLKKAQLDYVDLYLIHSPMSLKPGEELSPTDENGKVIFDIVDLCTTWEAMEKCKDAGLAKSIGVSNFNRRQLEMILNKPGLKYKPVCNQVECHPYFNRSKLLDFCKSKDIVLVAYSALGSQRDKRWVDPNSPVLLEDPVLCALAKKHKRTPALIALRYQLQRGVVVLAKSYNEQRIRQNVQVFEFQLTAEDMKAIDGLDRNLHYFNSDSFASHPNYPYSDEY

AKR1C1 = molecular target: T3, AKR1C1 (Homo sapiens, UniProt Q04828); type: biochemical; settings: selectivity for AKR1C3 over AKR1C1
T3 sequence (Q04828 1-323): T1 sequence (P52895 1-323) with V38T, H47R, V54L, S87C, M151V, H170R, L172Q

AKR1C4 = molecular target: T4, AKR1C4 (Homo sapiens, UniProt P17516); type: biochemical; settings: selectivity for AKR1C3 over AKR1C4
T4 sequence (P17516 1-323): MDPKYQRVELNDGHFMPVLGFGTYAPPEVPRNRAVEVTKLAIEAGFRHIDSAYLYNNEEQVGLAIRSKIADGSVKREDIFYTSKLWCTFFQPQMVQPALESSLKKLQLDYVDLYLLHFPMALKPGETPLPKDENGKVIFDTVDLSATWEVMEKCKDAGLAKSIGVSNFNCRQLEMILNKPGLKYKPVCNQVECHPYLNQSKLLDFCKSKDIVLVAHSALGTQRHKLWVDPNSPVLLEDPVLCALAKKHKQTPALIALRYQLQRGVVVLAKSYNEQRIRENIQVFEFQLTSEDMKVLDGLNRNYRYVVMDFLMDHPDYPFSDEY

oCOX-1 = molecular target: T5, oCOX-1 (Ovis aries, UniProt P05979); assay: continuous colorimetric COX-1 assay; type: biochemical, ovine; settings: for inhibitory activity on COX-1 at highest concentration tested: 100 μM inhibitor
T5 sequence (P05979 25-600): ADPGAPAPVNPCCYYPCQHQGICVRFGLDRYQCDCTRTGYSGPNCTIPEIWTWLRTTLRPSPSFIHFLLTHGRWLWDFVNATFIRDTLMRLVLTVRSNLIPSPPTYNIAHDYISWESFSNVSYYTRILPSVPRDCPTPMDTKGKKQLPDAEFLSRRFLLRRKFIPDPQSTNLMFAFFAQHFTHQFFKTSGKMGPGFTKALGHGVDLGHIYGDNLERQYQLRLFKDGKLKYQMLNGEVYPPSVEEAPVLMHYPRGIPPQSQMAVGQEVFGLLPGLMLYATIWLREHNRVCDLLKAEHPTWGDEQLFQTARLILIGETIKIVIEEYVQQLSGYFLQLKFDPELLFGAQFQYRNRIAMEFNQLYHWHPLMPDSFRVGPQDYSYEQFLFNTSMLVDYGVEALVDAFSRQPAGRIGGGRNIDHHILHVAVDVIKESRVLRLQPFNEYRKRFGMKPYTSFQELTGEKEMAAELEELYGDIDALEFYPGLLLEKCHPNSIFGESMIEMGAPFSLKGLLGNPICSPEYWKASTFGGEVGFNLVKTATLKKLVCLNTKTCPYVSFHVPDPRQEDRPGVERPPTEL

mouse COX-2 = molecular target: T6, mouse COX-2 (Mus musculus, UniProt Q05769); assay: discontinuous 14C-AA TLC-based COX assay, COX-2; settings: for inhibition at 25 µM: read-out: wt mCOX 2 % inhib. @ 25 μM, 25 μM inhibitor, 5 μM AA; for wt mCOX 2 plateau of inhibition (P @ %): plateau at higher inhibitor concentrations
T6 sequence (Q05769 18-604): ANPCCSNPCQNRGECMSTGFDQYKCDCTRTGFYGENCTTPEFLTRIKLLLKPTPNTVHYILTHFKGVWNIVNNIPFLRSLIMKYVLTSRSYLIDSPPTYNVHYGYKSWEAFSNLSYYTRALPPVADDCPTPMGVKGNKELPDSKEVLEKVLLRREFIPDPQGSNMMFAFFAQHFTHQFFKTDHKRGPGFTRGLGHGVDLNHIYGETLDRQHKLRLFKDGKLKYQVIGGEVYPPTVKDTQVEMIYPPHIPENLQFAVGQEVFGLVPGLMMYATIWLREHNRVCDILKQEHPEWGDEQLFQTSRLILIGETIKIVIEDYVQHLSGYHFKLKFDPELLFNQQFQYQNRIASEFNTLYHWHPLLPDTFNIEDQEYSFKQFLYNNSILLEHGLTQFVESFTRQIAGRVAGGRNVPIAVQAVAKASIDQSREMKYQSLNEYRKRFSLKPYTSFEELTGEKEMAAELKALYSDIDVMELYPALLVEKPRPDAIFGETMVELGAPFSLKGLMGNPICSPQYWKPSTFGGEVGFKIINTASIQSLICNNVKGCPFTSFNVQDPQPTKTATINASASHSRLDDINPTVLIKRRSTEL

ovine COX-1 = molecular target: T7, ovine COX-1 (Ovis aries, UniProt P05979); assay: discontinuous 14C-AA TLC-based COX assay, COX-1; settings: for inhibition at 25 µM: read-out: oCOX 1 % inhib. @ 25 μM, 25 μM inhibitor, 5 μM AA
T7 sequence (P05979 25-600): T5 sequence (P05979 25-600)

Compound: COc1ccc2c(c1)c(CC(=O)O)c(C)n2C(=O)c1ccc(Cl)cc1 [Compound 1, 2-(1-(4-chlorobenzoyl)-5-methoxy-2-methyl-1H-indol-3-yl)acetic acid, reference compound]
inhibition of testosterone formation (LNCaP-AKR1C3 cells): robust inhibition

Compound: COC(=O)Cc1c(C)n(C(=O)c2ccc(Cl)cc2)c2ccc(OC)cc12 [Compound 10]
loss of inhibitory potency for AKR1C3 (AKR1C3): 57 fold

Compound: COc1ccc2c(c1)c(CC(=O)NS(C)(=O)=O)c(C)n2C(=O)c1ccc(Cl)cc1 [Compound 14, 2-(1-(4-Chlorobenzoyl)-5-methoxy-2-methyl-1H-indol-3-yl)-N-(methylsulfonyl)acetamide]
loss of inhibitory potency for AKR1C3 (AKR1C3): 22 fold

Compound: COc1ccc2c(c1)c(CC(=O)NS(=O)(=O)C(F)(F)F)c(C)n2C(=O)c1ccc(Cl)cc1 [Compound 15]
IC50 ratio AKR1C1/AKR1C3 (value in parentheses) (AKR1C1): > 135
IC50 ratio AKR1C4/AKR1C3 (value in parentheses) (AKR1C4): > 135

Compound: O=C(O)Cc1cn(C(=O)c2ccc(Cl)cc2)c2ccc(F)cc12 [Compound 25]
increase in AKR1C2 inhibitory potency (AKR1C2; relative to des-methyl-indomethacin (20)): 4 fold

Compound: COc1ccc2c(c1)c(CC(=O)NS(=O)(=O)C(F)(F)F)cn2C(=O)c1ccc(Cl)cc1 [Compound 27, 2-(1-(4-Chlorobenzoyl)-5-methoxy-1H-indol-3-yl)-N-((trifluoromethyl)sulfonyl)acetamide]
IC50 (oCOX-1): 2.19 µM

Compound: COc1ccc2c(c1)c(C)c(CCC(=O)O)n2C(=O)c1ccc(Cl)cc1 [Compound 44, 3-(1-(4-Chlorobenzoyl)-5-methoxy-3-methyl-1H-indol-2-yl)propanoic Acid]
IC50 (oCOX-1): > 100 µM
inhibitory activity on COX-1 at highest concentration tested (oCOX-1): did not display significant inhibitory activity
inhibition of testosterone formation (LNCaP-AKR1C3 cells): robust inhibition
inhibition at 4 µM (mouse COX-2; read-out: wt mCOX 2 % inhib. @ 4 μM, 4 μM inhibitor, 5 μM AA): < 18%
inhibition at 25 µM (mouse COX-2): ≤ 34%

Compound: CCc1c(CCC(=O)O)n(C(=O)c2ccc(Cl)cc2)c2ccc(OC)cc12 [Compound 47, 3-(1-(4-Chlorobenzoyl)-3-ethyl-5-methoxy-1H-indol-2-yl)propanoic Acid]
inhibition at 25 µM (mouse COX-2): ≤ 34%

Compound: COc1ccc2c(c1)c(C)c(CC(C)(C)C(=O)O)n2C(=O)c1ccc(Cl)cc1 [Compound 48, 3-(1-(4-Chlorobenzoyl)-5-methoxy-3-methyl-1H-indol-2-yl)-2,2-dimethylpropanoic Acid]
inhibition at 25 µM (ovine COX-1): ≤ 34%
inhibition at 25 µM (mouse COX-2): ≤ 34%

Compound: COc1ccc2c(c1)c(C)c(CC(C)C(=O)O)n2C(=O)c1ccc(Cl)cc1 (centres unmarked) [Compound 49, 3-(1-(4-Chlorobenzoyl)-5-methoxy-3-methyl-1H-indol-2-yl)-2-methylpropanoic Acid]
loss of AKR1C3 potency (AKR1C3): 2 fold

Compound: COc1ccc2c(c1)c(C)c(CCC(=O)NS(C)(=O)=O)n2C(=O)c1ccc(Cl)cc1 [Compound 50, 3-(1-(4-Chlorobenzoyl)-5-methoxy-3-methyl-1H-indol-2-yl)-N-(methylsulfonyl)propanamide]
IC50 (oCOX-1): > 100 µM
inhibitory activity on COX-1 at highest concentration tested (oCOX-1): did not display significant inhibitory activity
inhibition of testosterone formation (LNCaP-AKR1C3 cells): robust inhibition
inhibition at 25 µM (ovine COX-1): ≤ 34%
inhibition at 25 µM (mouse COX-2): ≤ 34%
loss of AKR1C3 potency (AKR1C3): 3 fold

Further lines, results first:

selectivity for AKR1C3 over AKR1C2 (AKR1C2): over 300 fold
Compound: COc1ccc(C(=O)n2c(C)c(CC(=O)O)c3cc(OC)ccc32)cc1 [Compound 4]

IC50 Ratio 1C2/1C3 (AKR1C2): >12
Compound: COC(=O)Cc1c(C)n(C(=O)c2ccc(OC)cc2)c2ccc(OC)cc12 [Compound 13]

IC50 (oCOX-1): 48.8 µM
Compound: COc1ccc2c(c1)c(CCC(=O)O)c(C)n2C(=O)c1ccc(Cl)cc1 [Compound 16, 3-(1-(4-Chlorobenzoyl)-5-methoxy-2-methyl-1H-indol-3-yl)propanoic Acid]

loss of inhibitory potency for AKR1C3 (AKR1C3): 36 fold
Compound: COc1ccc2c(c1)cc(C)n2C(=O)c1ccc(Cl)cc1 [Compound 19]

slope factor of inhibition dose–response curve (AKR1C3): 1
Compound: COc1ccc2c(c1)c(CC(=O)O)cn2C(=O)c1ccc(Cl)cc1 [Compound 20, 2-(1-(4-Chlorobenzoyl)-5-methoxy-1H-indol-3-yl)acetic Acid]

IC50 Ratio 1C2/1C3 (AKR1C2): >8
Compound: COC(=O)Cc1cn(C(=O)c2ccc(Cl)cc2)c2ccc(OC)cc12 [Compound 21]

IC50 Ratio 1C2/1C3 (AKR1C2): >20
Compound: COc1ccc2c(c1)c(CC(=O)O)cn2C(=O)c1ccc(F)cc1 [Compound 22]

IC50 Ratio 1C2/1C3 (AKR1C2): >4
Compound: CCC(=O)Cc1cn(C(=O)OC)c2ccc(OC)cc12 [Compound 43]

IC50 (oCOX-1): 0.75 µM
wt mCOX 2 plateau of inhibition (P @ %) (mouse COX-2): 61.4%
Compound: COc1ccc2c(c1)c1c(n2C(=O)c2ccc(Cl)cc2)CCC(C(=O)O)C1 (centres unmarked) [Compound 61, 9-(4-Chlorobenzoyl)-6-methoxy-2,3,4,9-tetrahydro-1H-carbazole-3-carboxylic Acid]

selectivity for AKR1C3 over AKR1C2 (AKR1C2): 20 fold
IC50 Ratio 1C2/1C3 (AKR1C2): > 20
Compound: COc1ccc2c(c1)c1c(n2C(=O)c2ccc(Cl)cc2)CCC(C(=O)NS(C)(=O)=O)C1 (centres unmarked) [Compound 63, 9-(4-Chlorobenzoyl)-6-methoxy-N-(methylsulfonyl)-2,3,4,9-tetrahydro-1H-carbazole-3-carboxamide]

IC50 (ovine COX-1): 2.4 µM
oCOX 1 plateau of inhibition (P @ %) (ovine COX-1; plateau at higher inhibitor concentrations): 56.1%
IC50 (mouse COX-2): 1.48 µM
wt mCOX 2 plateau of inhibition (P @ %) (mouse COX-2): 62.6%
Compound: COc1ccc2c(c1)c1c(n2C(=O)c2ccc(Cl)cc2)CC(C(=O)O)CC1 (centres unmarked) [Compound 64, 9-(4-Chlorobenzoyl)-6-methoxy-2,3,4,9-tetrahydro-1H-carbazole-2-carboxylic Acid]
